Measurements taken from patent US10426757B2, “Compositions and methods for promoting intestinal stem cell and/or non-stem progenitor cell function” (Whitehead Institute for Biomedical Research, priority 2014, dated 2019).
Entries after “also recorded” stand apart in the source; their conditions may differ.

Experiments:
β-catenin = β-catenin nuclear localization by immunostaining; format: in vivo, mouse; settings: GW501516-treated mice vs vehicle
Lgr5-GFP^low progenitors = test: Organoid formation by sorted Lgr5-GFP^low progenitors; format: cell-based, mouse; settings: progenitors from GW501516-treated mice, vs vehicle
Description: Isolated ISCs or progenitor cells were centrifuged for 5 minutes at 250 g, re-suspended in the appropriate volume of crypt culture medium (500-1,000 cells μl^−1), then seeded onto 25-30 μl Matrigel™ (Corning 356231 growth factor reduced) containing 1 μM jagged (Ana-Spec) in a flat bottom 48-well plate (Corning 3548). Alternatively, ISCs and Paneth cells were mixed after sorting in a 1:1 ratio, centrifuged, and then seeded onto Matrigel™. The Matrigel™ and cells were allowed to solidify before adding 300 μl of crypt culture medium. The crypt media was changed every second or third day. Organoid bodies were quantified on days 3, 7 and 10 of culture, unless otherwise specified. With respect to the study results presented in FIGS. 14-16, organoid bodies were quantified on day 3-4. In secondary experiments, individual primary organoids were mechanically dissociated and re-plated, or organoids were dissociated for 10 minutes in TrypLE Express at 32° C., re-suspended with SMEM (Life Technologies), centrifuged and re-suspended in cold SMEM with viability dye 7-AAD. Live cells were sorted and seeded onto Matrigel™ as previously described.

Cc1cc(SCc2sc(-c3ccc(C(F)(F)F)cc3)nc2C)ccc1OCC(=O)O [GW501516, 2-[2-methyl-4-[[4-methyl-2-[4-(trifluoromethyl)phenyl]-1,3-thiazol-5-yl]methylsulfanyl]phenoxy]acetic acid]
nuclear β-catenin in stem and progenitor cells of crypts (intestinal sections) (β-catenin): increased nuclear β-catenin localization | nuclear β-catenin localization in flow sorted ISCs and progenitors (β-catenin): increased nuclear β-catenin localization | nuclear β-catenin in stem and progenitor cells of crypts (intestinal sections) (β-catenin; listed as PPAR-δ agonist): greater percentage | nuclear β-catenin localization in flow sorted ISCs and progenitors (β-catenin; listed as PPAR-δ agonist): more nuclear β-catenin accumulation | organoid-initiating capacity of Lgr5-GFP^low progenitors (Lgr5-GFP^low progenitors): possess the potential to autonomously form organoid bodies; also recorded: conferred organoid-initiating capacity | organoid-initiating capacity of Lgr5-GFP^low progenitors (Lgr5-GFP^low progenitors; listed as GW501515): sufficient to enhance | organoid-initiating capacity of Lgr5-GFP^low progenitors (Lgr5-GFP^low progenitors; listed as PPAR-δ agonist): capable of forming organoids
